Laboratory results from ChEMBL document CHEMBL1201862, “PubChem BioAssay data set” (2004).
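Values below derive from 48-hour exposures of cells grown in 96-well plates, with endpoints linearly interpolated between the two concentrations bracketing the appropriate inhibition level. GI50: concentration for 50% inhibition of growth.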 Active and inactive are the calls of the source. Rule as the data show it: active = GI50 up to about 1.1 µM and inactive = higher.

Assays:
Assay in all cases: NCI tumour cell line growth inhibition, 48 h
A498 = tested on: A498
COLO 205 = tested on: COLO 205
DU-145 = tested on: DU-145
Malme-3M = tested on: Malme-3M
NCI-H226 = tested on: NCI-H226
NCI-H522 = tested on: NCI-H522
RXF 393 = tested on: RXF 393
SF-539 = tested on: SF-539
SK-MEL-2 = tested on: SK-MEL-2
SN12C = tested on: SN12C
SNB-75 = tested on: SNB-75
U-251 = tested on: U-251
UACC-257 = tested on: UACC-257
MDA-MB-231 = tested on: MDA-MB-231
MDA-MB-435 = tested on: MDA-MB-435
NCI/ADR-RES = tested on: NCI/ADR-RES
PC-3 = tested on: PC-3
SR = tested on: SR

Row | Compound | GI50 (A498) | GI50 (COLO 205) | GI50 (DU-145) | GI50 (Malme-3M) | GI50 (NCI-H226) | GI50 (NCI-H522) | GI50 (RXF 393) | GI50 (SF-539) | GI50 (SK-MEL-2) | GI50 (SN12C) | GI50 (SNB-75) | GI50 (U-251) | GI50 (UACC-257) | GI50 (MDA-MB-231) | GI50 (MDA-MB-435) | GI50 (NCI/ADR-RES) | GI50 (PC-3) | GI50 (SR)
1 | O=C1CCCC/C1=C/C=C/c1ccccc1 | > 100 µM (inactive) | > 100 µM (inactive) | 64.6 µM (inactive) | 87.9 µM (inactive) | > 100 µM (inactive) | 30.7 µM (inactive) | 47.4 µM (inactive) | > 100 µM (inactive) | > 100 µM (inactive) | > 100 µM (inactive) | 32.7 µM (inactive) | 83 µM (inactive) | 62.2 µM (inactive) | – | – | – | – | –
2 | CCCCCC(C)C[C@H]1CO[C@H](c2ccc[nH]2)N[C@H]1C(=O)OC (some centres undefined) | > 100 µM (inactive) | > 100 µM (inactive) | > 100 µM (inactive) | > 100 µM (inactive) | – | > 100 µM (inactive) | > 100 µM (inactive) | > 100 µM (inactive) | > 100 µM (inactive) | > 100 µM (inactive) | – | > 100 µM (inactive) | > 100 µM (inactive) | > 100 µM (inactive) | > 100 µM (inactive) | > 100 µM (inactive) | > 100 µM (inactive) | –
3 | CC1Cn2c(nc3ccccc32)NC1=O (centres undefined) | > 100 µM (inactive) | > 100 µM (inactive) | – | 58.2 µM (inactive) | > 100 µM (inactive) | > 100 µM (inactive) | > 100 µM (inactive) | > 100 µM (inactive) | > 100 µM (inactive) | – | > 100 µM (inactive) | > 100 µM (inactive) | > 100 µM (inactive) | > 100 µM (inactive) | > 100 µM (inactive) | > 100 µM (inactive) | > 100 µM (inactive) | > 100 µM (inactive)
4 | COc1oc(C2C/C(=C/C(C)=C/C(C)=C/C(C)=C/c3ccc([N+](=O)[O-])cc3)CO2)c(C)c(=O)c1C (centres undefined) | 6.89 µM (inactive) | 3.55 µM (inactive) | 8.2 µM (inactive) | 3.61 µM (inactive) | 7.28 µM (inactive) | 0.344 µM (active) | 17.9 µM (inactive) | 12 µM (inactive) | 23.9 µM (inactive) | 2.57 µM (inactive) | 15.4 µM (inactive) | 6.27 µM (inactive) | 5.32 µM (inactive) | 15.8 µM (inactive) | 3.01 µM (inactive) | – | 2.02 µM (inactive) | < 0.01 µM (active)
5 | COC(=O)C1=C2SCc3cccc(c3)CSC3=C(C(=O)OC)SC(=C(S2)S1)S3 | > 100 µM (inactive) | > 100 µM (inactive) | > 100 µM (inactive) | – | > 100 µM (inactive) | – | > 100 µM (inactive) | – | 32.7 µM (inactive) | 65.9 µM (inactive) | > 100 µM (inactive) | 40.2 µM (inactive) | > 100 µM (inactive) | 24.7 µM (inactive) | > 100 µM (inactive) | – | 35.5 µM (inactive) | –
6 | NS(=O)(=O)c1ccc(/N=N/c2ccc(O)c(C(=O)O)c2)cc1 [SALAZOSULFAMIDE] | > 100 µM (inactive) | > 100 µM (inactive) | > 100 µM (inactive) | 52.2 µM (inactive) | > 100 µM (inactive) | 82.4 µM (inactive) | > 100 µM (inactive) | – | 20.7 µM (inactive) | > 100 µM (inactive) | 69 µM (inactive) | > 100 µM (inactive) | > 100 µM (inactive) | > 100 µM (inactive) | > 100 µM (inactive) | > 100 µM (inactive) | > 100 µM (inactive) | –
7 | Cc1cc2[nH]c3c(C#N)c(-c4ccccc4)c(/C=N/c4ccc(F)cc4)c(=O)n3c2cc1C | > 100 µM (inactive) | > 100 µM (inactive) | – | 76 µM (inactive) | 69.7 µM (inactive) | 45.5 µM (inactive) | 91.2 µM (inactive) | > 100 µM (inactive) | > 100 µM (inactive) | > 100 µM (inactive) | > 100 µM (inactive) | > 100 µM (inactive) | > 100 µM (inactive) | > 100 µM (inactive) | 91.2 µM (inactive) | > 100 µM (inactive) | > 100 µM (inactive) | –
8 | O=c1c2ccccc2nc(-c2cccc([N+](=O)[O-])c2)n1O | > 40.7 µM (inactive) | 31.3 µM (inactive) | > 100 µM (inactive) | > 80 µM (inactive) | 23.7 µM (inactive) | 28.6 µM (inactive) | 47.1 µM (inactive) | 47.8 µM (inactive) | 22.6 µM (inactive) | 24.2 µM (inactive) | 45.8 µM (inactive) | 27.4 µM (inactive) | 50.7 µM (inactive) | 17.5 µM (inactive) | 41.5 µM (inactive) | 23.3 µM (inactive) | – | > 100 µM (inactive)
9 | CC1C(c2ccccc2O)c2cc3c(cc2OC1N1CCOCC1)OCO3 (centres undefined) | 19.2 µM (inactive) | 21.2 µM (inactive) | 38.5 µM (inactive) | 16.9 µM (inactive) | 25.3 µM (inactive) | 12.4 µM (inactive) | 22.6 µM (inactive) | 20.5 µM (inactive) | 29 µM (inactive) | 37.1 µM (inactive) | 27.8 µM (inactive) | 26.5 µM (inactive) | 19.6 µM (inactive) | 29.9 µM (inactive) | 25.4 µM (inactive) | – | 27.1 µM (inactive) | 12.5 µM (inactive)
10 | CC(C)N1[C@@H]2CCCC[C@H]2N(C(C)C)[PH]1=O | > 100 µM (inactive) | > 100 µM (inactive) | > 100 µM (inactive) | – | > 100 µM (inactive) | > 100 µM (inactive) | > 100 µM (inactive) | > 100 µM (inactive) | – | > 100 µM (inactive) | > 100 µM (inactive) | – | > 100 µM (inactive) | – | > 100 µM (inactive) | > 100 µM (inactive) | – | > 100 µM (inactive)
11 | Cc1oc2nc1C(=O)NCc1nc(cs1)C(=O)N[C@H](C(C)C)c1nc(cs1)C(=O)N[C@H]2C | > 100 µM (inactive) | 75.7 µM (inactive) | 79.3 µM (inactive) | > 100 µM (inactive) | 42.9 µM (inactive) | 26.7 µM (inactive) | 8.34 µM (inactive) | 42.3 µM (inactive) | – | 58.5 µM (inactive) | 95.7 µM (inactive) | > 100 µM (inactive) | > 100 µM (inactive) | 9.57 µM (inactive) | > 100 µM (inactive) | 30.1 µM (inactive) | 40.3 µM (inactive) | –
12 | O=C(Cn1c(=O)ccn(C2OC(CO)C(O)C2F)c1=O)c1ccc(F)cc1 (centres undefined) | – | > 100 µM (inactive) | > 100 µM (inactive) | > 100 µM (inactive) | > 100 µM (inactive) | > 100 µM (inactive) | > 100 µM (inactive) | > 100 µM (inactive) | – | > 100 µM (inactive) | 82.2 µM (inactive) | > 100 µM (inactive) | > 100 µM (inactive) | > 100 µM (inactive) | > 100 µM (inactive) | > 100 µM (inactive) | > 100 µM (inactive) | –
13 | CN1CCN(Cc2ccccc2)CC1CC#N (centres undefined) | > 100 µM (inactive) | > 100 µM (inactive) | > 100 µM (inactive) | > 100 µM (inactive) | > 100 µM (inactive) | – | > 100 µM (inactive) | > 100 µM (inactive) | – | > 100 µM (inactive) | > 100 µM (inactive) | > 100 µM (inactive) | > 100 µM (inactive) | > 100 µM (inactive) | > 100 µM (inactive) | > 100 µM (inactive) | – | > 100 µM (inactive)
